Experimental data as given in patent US20250282799A1, “SUBSTITUTED PYRIDO[4,3-d]PYRIMIDINES AS KRAS MODULATORS” (Alterome Therapeutics, Inc., priority 2023, published 2025).

Columns and labels:
[1] = Pharmacokinetic evaluation, single dosing (oral and intravenous) in rats; type: in vivo, male Sprague-Dawley rats; set-up: unit not given here; details: rat, plasma
Description: Pharmacokinetic profile for test compound was measured by single dosing in male Sprague-Dawley rats. Animal weights were typically over 200 grams, and animals were allowed to acclimate to their new environment for at least 3 days prior to the initiation of any studies. One set of animals was dosed intravenous with test compound, 2 mg/kg in 20% PEG400, 10% HS-15 Solutol, 70% 50 mM citrate buffer (pH 4.0). Intravenous dosing solution concentration was 1.0 mg/mL. Time of blood sampling was 5 minutes, 15 minutes, 30 minutes, 1 hour, 2 hours, 4 hours, 8 hours, and 24 hours following intravenous dosing. Another set of animals was dosed orally with test compound, 30 mg/kg in 20% PEG400, 10% HS-15 Solutol, 70% 50 mM citrate buffer (pH 4.0). Oral dosing solution concentration was 3.0 mg/mL. Time of blood sampling was 15 minutes, 30 minutes, 1 hour, 2 hours, 4 hours, 8 hours, and 24 hours following oral dosing. Blood samples (˜0.2 mL/sample) were collected via jugular vein and placed in tubes containing Heparin-Na. The blood samples in tubes were mixed and then placed on wet ice prior to centrifugation for plasma. The blood samples were centrifuged at 4000 g for 5 minutes at 4° C. to obtain plasma. The obtained plasma was separated and stored frozen at approximately −80° C.
All the plasma samples were analyzed using a Shimadzu (DGU-405) HPLC with an API 6500+MS/MS system following the manufacturer's instructions. All the analytes were detected with positive-mode electrospray ionization (ES+). A standard curve for each test compound was generated and used to measure test compound concentrations in the rat plasma samples. Based on the time course sampling, an area under the curve (AUC) was calculated for the oral group and intravenous group. The percentage of rat bioavailability is calculated based on the equation shown below.
where F is bioavailability, AUCPO is area under curve of oral dosing, AUCIV is area under curve of intravenous dosing, DoseIV is the intravenous dose and DosePO is the oral dose. The oral dosing for the experiments presented in Table 5 was performed at 10 mg/kg unless noted otherwise.

KRAS (G12D)/CRAF = KRAS (G12D)/CRAF (Homo sapiens (Human), UniProt P01116, G12D); assay: TR-FRET biochemical KRAS:CRAF protein:protein interaction assay, KRAS (G12D); type: binding; details: GMPPNP loaded Biotin-KRAS (G12D), FLAG CRAF RBD; read-out: TR-Fret_PPI KRAS (G12D)/CRAF IC50
Method in brief: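 Compound (10-point 3-fold series, 1% DMSO final) preincubated 30 min at room temperature with 20 nM biotin-KRAS mutant loaded with GMPPNP, in Hepes pH7.3 buffer with 5 mM MgCl2 and 10 uM GMP-PNP. Then 100 nM FLAG-CRAF RBD for 150 min, 1 nM Tb-anti-FLAG/5 nM SA-XL665 for 90 min; IC50 from normalized 665/620 ratio, 4-parameter fit.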

Sequence of KRAS (G12D)/CRAF (P01116-2 other isoform, or with tags, fused parts or gaps G12D): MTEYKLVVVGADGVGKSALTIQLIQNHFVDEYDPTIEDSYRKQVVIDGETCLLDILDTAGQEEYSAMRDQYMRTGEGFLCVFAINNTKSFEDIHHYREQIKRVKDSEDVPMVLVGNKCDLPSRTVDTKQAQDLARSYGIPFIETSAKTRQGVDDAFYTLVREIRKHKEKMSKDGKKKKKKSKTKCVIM

Compound | IV (dose 2 mg/kg) (AUC/D) (h*mg/mL) [1] | PO (dose 10 mg/kg) (AUC/D) (h*mg/mL) ([1]; oral) | IC50 (KRAS (G12D)/CRAF) [nM] | PO (AUC/D) (h*mg/mL), dose 30 mg/kg ([1]; oral, dose 30 mg/kg)
[2H]C([2H])(Oc1nc(N2CCOC[C@H]3[C@H](F)[C@H]32)c2cnc(-c3cc(N)cc4cc(F)c(F)c(C#C)c34)c(F)c2n1)[C@@]12CCCN1C[C@H](F)C2 [Example 28, 5-Ethynyl-6,7-difluoro-4-(8-fluoro-4-((1S,7S,8S)-8-fluoro-5-oxa-2-azabicyclo[5.1.0]octan-2-yl)-2-(((2R,7aS)-2-fluorotetrahydro-1H-pyrrolizin-7a(5H)-yl)methoxy-d2)pyrido[4,3-d]pyrimidin-7-yl)naphthalen-2-amine] | 993 | 141 | 11.6 | –
[2H]C([2H])(Oc1nc(N2CCCC[C@H]3[C@H](F)[C@H]32)c2cnc(-c3cc(N)cc4ccc(F)c(C#C)c34)c(F)c2n1)[C@@]12CCCN1C[C@H](F)C2 [Example 82, 5-Ethynyl-6-fluoro-4-(8-fluoro-4-((1S,7R,8S)-8-fluoro-2-azabicyclo[5.1.0]octan-2-yl)-2-(((2R,7aS)-2-fluorotetrahydro-1H-pyrrolizin-7a(5H)-yl)methoxy-d2)pyrido[4,3-d]pyrimidin-7-yl)naphthalen-2-amine] | 490 | 115 | 8.11 | –
[2H]C([2H])(Oc1nc(N2CCCC[C@H]3[C@H](F)[C@H]32)c2cnc(-c3cc(N)cc4cc(F)c(F)c(C#C)c34)c(F)c2n1)[C@@]12CCCN1C[C@H](F)C2 [Example 16, 5-Ethynyl-6,7-difluoro-4-(8-fluoro-4-((1S,7R,8S)-8-fluoro-2-azabicyclo[5.1.0]octan-2-yl)-2-(((2R,7aS)-2-fluorotetrahydro-1H-pyrrolizin-7a(5H)-yl)methoxy-d2)pyrido[4,3-d]pyrimidin-7-yl)naphthalen-2-amine] | 718 | 75 | 9.98 | –
[2H]C([2H])(Oc1nc(N2CCOC[C@H]3[C@H](F)[C@H]32)c2cnc(-c3cc(N)cc4ccc(F)c(C#C)c34)c(F)c2n1)[C@@]12CCCN1C[C@H](F)C2 [Example 87, 5-Ethynyl-6-fluoro-4-(8-fluoro-4-((1S,7S,8S)-8-fluoro-5-oxa-2-azabicyclo[5.1.0]octan-2-yl)-2-(((2R,7aS)-2-fluorotetrahydro-1H-pyrrolizin-7a(5H)-yl)methoxy-d2)pyrido[4,3-d]pyrimidin-7-yl)naphthalen-2-amine] | 494 | – | 9.92 | 122
